US8227422B2, “Peptides and compounds that bind to a receptor” (Glaxosmithkline LLC, priority 1996, dated 2012)
Read-outs that look alike come from different tables or passages of the source. Where a SMILES comes first, the peptide text is derived from it.

Experiments:
[1] = target: T1, human TPO-R (transfected Ba/F3 cells) (Homo sapiens, UniProt P40238); experiment: Thrombopoietin dependent cell proliferation assay (MTT), TPO-R transfected Ba/F3 cells; assay type: cell-based
T1 construct: Murine IL-3 dependent Ba/F3 cells were transfected with full length human TPO-R; expressed in transfected cells; host or cells: murine Ba/F3 cells
T1 sequence (P40238 26-635): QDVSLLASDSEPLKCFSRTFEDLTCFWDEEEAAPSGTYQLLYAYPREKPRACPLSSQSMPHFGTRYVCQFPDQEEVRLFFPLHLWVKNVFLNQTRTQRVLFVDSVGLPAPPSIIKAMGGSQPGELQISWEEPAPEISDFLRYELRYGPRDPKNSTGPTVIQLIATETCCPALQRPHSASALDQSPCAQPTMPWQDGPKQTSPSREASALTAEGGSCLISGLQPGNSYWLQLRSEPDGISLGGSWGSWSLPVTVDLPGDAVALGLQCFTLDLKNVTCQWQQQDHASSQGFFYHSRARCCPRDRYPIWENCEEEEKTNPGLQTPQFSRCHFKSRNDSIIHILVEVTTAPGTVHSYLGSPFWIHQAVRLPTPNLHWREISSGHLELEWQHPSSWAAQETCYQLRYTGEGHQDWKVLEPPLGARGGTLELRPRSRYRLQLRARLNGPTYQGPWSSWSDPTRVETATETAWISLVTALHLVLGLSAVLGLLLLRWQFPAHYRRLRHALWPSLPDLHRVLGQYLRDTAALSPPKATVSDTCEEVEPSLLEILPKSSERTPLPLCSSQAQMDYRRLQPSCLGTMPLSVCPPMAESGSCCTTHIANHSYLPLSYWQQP

TPO-R = target: T2, TPO-R (Homo sapiens, UniProt P40238); experiment: Competition binding assay (equilibrium binding ELISA, MBP-TPO156 tracer) on immobilized TPO-R
T2 construct: made in house
T2 sequence (P40238 26-491 limits assumed): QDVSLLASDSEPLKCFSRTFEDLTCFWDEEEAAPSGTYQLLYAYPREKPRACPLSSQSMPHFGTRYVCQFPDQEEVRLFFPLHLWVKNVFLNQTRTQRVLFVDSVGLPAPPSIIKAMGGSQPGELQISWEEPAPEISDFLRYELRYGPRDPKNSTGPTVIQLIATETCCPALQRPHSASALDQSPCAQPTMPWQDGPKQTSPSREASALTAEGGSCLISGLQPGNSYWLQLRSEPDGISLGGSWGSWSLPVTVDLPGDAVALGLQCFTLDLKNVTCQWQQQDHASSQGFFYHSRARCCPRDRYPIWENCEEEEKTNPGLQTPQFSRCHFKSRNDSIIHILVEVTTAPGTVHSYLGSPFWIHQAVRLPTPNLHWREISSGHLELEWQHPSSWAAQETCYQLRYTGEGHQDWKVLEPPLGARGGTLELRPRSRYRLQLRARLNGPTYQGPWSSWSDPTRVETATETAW
Experimental: A variety of methods can be used to evaluate IC50 values. For example, an equilibrium binding ELISA assay, using either MBP-TPO or lacI-peptide tracer, was used to determine whether the peptides inhibit the binding of TPO to the extracellular domain of the TPO receptor. Typically, the IC50 value were determined using the free peptide. The IC50 value can be determined using the free peptide, which optionally can be C-terminally amidated, or can be prepared as an ester or other carboxy amide.
Binding affinities of chemically synthesized peptides for TPO-R were measured in a competition binding assay. The wells of a microtiter plate were coated with 1 mg streptavidin, blocked with PBS/1% BSA, followed by 50 ng of biotinylated anti-receptor immobilizing antibody (Ab179). The wells were then treated with a 1:10 dilution of soluble TPO-R harvest. Various concentrations of peptide or peptide mimetic were mixed with a constant amount of a truncated form of TPO consisting of residues 1-156 fused to the C-terminus of maltose binding protein (MBP-TPO156). The peptide MBP-TPO156 mixtures were added to the TPO-R coated wells, incubated for 2 hours at 4° C. and then washed with PBS. The amount of MBP-TPO156 that was bound at equilibrium was measured by adding a rabbit anti-sera directed against MBP, followed by alkaline phosphatase conjugated goat anti-rabbit IgG. The amount of alkaline phosphatase in each well was then determined using standard methods.
The assay is conducted over a range of peptide concentrations and the results are graphed such that the y axis represents the amount of bound MBP-TPO156 and the x axis represents the concentration of peptide or peptide mimetic.

[2] = Table 5, substitutions in cyclized compound, read-out: EC50 (nM) Cell Prolif.

SMILES	EC50 [1, 2]	IC50 (TPO-R; Table 5, read-out: IC50)	other results
CC[C@H](C)[C@@H]1NC(=O)[C@H](Cc2c[nH]c3ccccc23)NC(=O)[C@H](CCC(=O)O)NC(=O)[C@H](CCCNC(=N)N)NC(=O)[C@H](CC(C)C)NC(=O)[C@H]([C@@H](C)O)NC(=O)[C@@H]2CCCN2C(=O)CNC(=O)[C@H](CC(=O)O)NC(=O)[C@H](C)NC(=O)CSC[C@@H](C(N)=O)NC(=O)CCCCNC1=O [S,F-Ava(thioether)] (HELM PEPTIDE1{[O=C(C[*:3])[*:2]].A.D.G.P.T.L.R.E.W.I.[O=C(CCCCN[*:1])[*:2]].C.[am]}$PEPTIDE1,PEPTIDE1,1:R3-13:R3$$$V2.0; N-terminus and C-terminus assumed)	< 200000 nM	≤ 500 nM	–
CC[C@H](C)[C@@H]1NC(=O)[C@H](Cc2c[nH]c3ccccc23)NC(=O)[C@H](CCC(=O)O)NC(=O)[C@H](CCCNC(=N)N)NC(=O)[C@H](CC(C)C)NC(=O)[C@H]([C@@H](C)O)NC(=O)[C@@H]2CCCN2C(=O)CNC(=O)[C@H](CC(=O)O)NC(=O)[C@H](C)NC(=O)[C@@H](N)CSSC[C@@H](C(N)=O)NC(=O)CCCCNC1=O [S,F-Ava] (HELM PEPTIDE1{C.A.D.G.P.T.L.R.E.W.I.[O=C(CCCCN[*:1])[*:2]].C.[am]}$PEPTIDE1,PEPTIDE1,1:R3-13:R3$$$V2.0; N-terminus and C-terminus assumed)	< 200000 nM	≤ 500 nM	–
CC[C@H](C)[C@H](NC(C)=O)C(=O)N[C@@H](CCC(=O)O)C(=O)NCC(=O)N1CCC[C@H]1C(=O)N[C@H](C(=O)N[C@@H](CC(C)C)C(=O)N[C@@H](CCCNC(=N)N)C(=O)N[C@@H](CCC(N)=O)C(=O)N[C@@H](Cc1c[nH]c2ccccc12)C(=O)N[C@@H](CC(C)C)C(=O)N[C@@H](C)C(=O)N[C@@H](C)C(=O)N[C@@H](CCCNC(=N)N)C(=O)N[C@@H](C)C(=O)NCCCC[C@H](NC(=O)CCNC(=O)[C@H](C)NC(=O)[C@H](CCCNC(=N)N)NC(=O)[C@H](C)NC(=O)[C@H](C)NC(=O)[C@H](CC(C)C)NC(=O)[C@H](Cc1c[nH]c2ccccc12)NC(=O)[C@H](CCC(N)=O)NC(=O)[C@H](CCCNC(=N)N)NC(=O)[C@H](CC(C)C)NC(=O)[C@@H](NC(=O)[C@@H]1CCCN1C(=O)CNC(=O)[C@H](CCC(=O)O)NC(=O)[C@@H](NC(C)=O)[C@@H](C)CC)[C@@H](C)O)C(N)=O)[C@@H](C)O	–	–	EC50 ([1]; Table 10, truncations of the dimer, read-out: EC50 (nM) Cell Prolif.): < 500 nM
CC(C)C[C@@H]1NC(=O)[C@H](Cc2c[nH]c3ccccc23)NC(=O)[C@H](CCC(=O)O)NC(=O)[C@H](CCCNC(=N)N)NC(=O)[C@H](CC(C)C)NC(=O)[C@H]([C@@H](C)O)NC(=O)[C@@H](NC(=O)CNC(=O)CN)CSSC[C@@H](C(=O)NCC(=O)NCC(=O)O)NC(=O)[C@H](Cc2ccccc2)NC(=O)CNC(=O)CNC(=O)[C@H](Cc2c[nH]cn2)NC1=O [G G C T L R E W L H G G F C G G] (HELM PEPTIDE1{G.G.C.T.L.R.E.W.L.H.G.G.F.C.G.G}$PEPTIDE1,PEPTIDE1,3:R3-14:R3$$$V2.0; N-terminus and C-terminus assumed; bridges inferred)	–	–	IC50 (TPO-R; read-out: IC50 value): ≤ 500 nM
CC[C@H](C)[C@@H]1NC(=O)[C@H](Cc2c[nH]c3ccccc23)NC(=O)[C@H](CCC(=O)O)NC(=O)[C@H](CCCNC(=N)N)NC(=O)[C@H](CC(C)C)NC(=O)[C@H]([C@@H](C)O)NC(=O)[C@@H]2CCCN2C(=O)CNC(=O)[C@H](CC(=O)O)NC(=O)[C@H](C)NC(=O)[C@@H](NC(=O)CNC(=O)CN)CSSC[C@@H](C(=O)NCC(=O)NCC(=O)O)NC(=O)[C@H](Cc2ccccc2)NC(=O)[C@H](CO)NC1=O [G G C A D G P T L R E W I S F C G G] (HELM PEPTIDE1{G.G.C.A.D.G.P.T.L.R.E.W.I.S.F.C.G.G}$PEPTIDE1,PEPTIDE1,3:R3-16:R3$$$V2.0; N-terminus and C-terminus assumed; bridges inferred)	–	–	IC50 (TPO-R; Table 3, read-out: Affinity (IC50)): ≤ 500 nM
CC[C@H](C)[C@@H]1NC(=O)[C@H](Cc2c[nH]c3ccccc23)NC(=O)[C@H](CCC(=O)O)NC(=O)[C@H](CCCNC(=N)N)NC(=O)[C@H](CC(C)C)NC(=O)[C@H]([C@@H](C)O)NC(=O)[C@@H]2CCCN2C(=O)CNC(=O)[C@H](CC(=O)O)NC(=O)[C@H](C)NC(=O)[C@@H](N)CSSC[C@@H](C(N)=O)NC(=O)[C@H](Cc2cccnc2)NC(=O)[C@H](CO)NC1=O [F-(Pyridylala)] (HELM PEPTIDE1{C.A.D.G.P.T.L.R.E.W.I.S.[O=C([C@H](Cc1cccnc1)N[*:1])[*:2]].C.[am]}$PEPTIDE1,PEPTIDE1,1:R3-14:R3$$$V2.0; N-terminus and C-terminus assumed)	< 500 nM	≤ 500 nM	–
CC(C)C[C@H](NC(=O)[C@@H](NC(=O)[C@@H]1CCCN1C(=O)CNC(=O)[C@@H](NC(=O)[C@@H](N)Cc1c[nH]cn1)C(C)C)[C@@H](C)O)C(=O)N[C@@H](CCCNC(=N)N)C(=O)N[C@@H](CO)C(=O)NCC(=O)N[C@@H](CSSC[C@H](NC(=O)CNC(=O)[C@H](CO)NC(=O)[C@H](CCCNC(=N)N)NC(=O)[C@H](CC(C)C)NC(=O)[C@@H](NC(=O)[C@@H]1CCCN1C(=O)CNC(=O)[C@@H](NC(=O)[C@@H](N)Cc1c[nH]cn1)C(C)C)[C@@H](C)O)C(N)=O)C(N)=O (HELM PEPTIDE1{H.V.G.P.T.L.R.S.G.C.[am]}|PEPTIDE2{H.V.G.P.T.L.R.S.G.C.[am]}$PEPTIDE1,PEPTIDE2,10:R3-10:R3$$$V2.0)	–	–	EC50 ([1]; Table 7, dimer compounds, read-out: EC50 (nM) Prolif.): < 200000 nM; IC50 (TPO-R; Table 7, dimer compounds, read-out: IC50): ≤ 200000 nM
CC[C@H](C)[C@@H]1NC(=O)[C@@H](N)CSSC[C@@H](C(N)=O)NC(=O)[C@H](C)NC(=O)[C@H](CCCNC(=N)N)NC(=O)[C@H](C)NC(=O)[C@H](C)NC(=O)[C@H](CC(C)C)NC(=O)[C@H](Cc2c[nH]c3ccccc23)NC(=O)[C@H](CCC(N)=O)NC(=O)[C@H](CCCNC(=N)N)NC(=O)[C@H](CC(C)C)NC(=O)[C@H]([C@@H](C)O)NC(=O)[C@@H]2CCCN2C(=O)CNC(=O)[C@H](CCC(=O)O)NC1=O (HELM PEPTIDE1{C.I.E.G.P.T.L.R.Q.W.L.A.A.R.A.C.[am]}$PEPTIDE1,PEPTIDE1,1:R3-16:R3$$$V2.0)	–	–	IC50 (TPO-R; Table 9, read-out: IC50): ≤ 500 nM

Second part, led by results:

EC50 [1, 2]	IC50 (TPO-R; Table 5, read-out: IC50)	SMILES	other results
< 200000 nM	≤ 200000 nM	CC[C@H](C)[C@@H]1NC(=O)[C@H](Cc2c[nH]c3ccccc23)NC(=O)[C@H](CCC(=O)O)NC(=O)[C@H](CCCNC(=N)N)NC(=O)[C@H](CC(C)C)NC(=O)[C@H]([C@@H](C)O)NC(=O)[C@@H]2CCCN2C(=O)CNC(=O)[C@H](CC(=O)O)NC(=O)[C@H](C)NC(=O)[C@@H](N)CSSC[C@@H](C(N)=O)NC(=O)[C@H](Cc2ccccc2)NC(=O)[C@H](C)N(C)C1=O [S-(N-Me-Ala)] (HELM PEPTIDE1{C.A.D.G.P.T.L.R.E.W.I.[meA].F.C.[am]}$PEPTIDE1,PEPTIDE1,1:R3-14:R3$$$V2.0; N-terminus and C-terminus assumed)	–
< 500 nM	≤ 500 nM	CC[C@@H]1NC(=O)[C@H]([C@@H](C)CC)NC(=O)[C@H](Cc2c[nH]c3ccccc23)NC(=O)[C@H](CCC(=O)O)NC(=O)[C@H](CCCNC(=N)N)NC(=O)[C@H](CC(C)C)NC(=O)[C@H]([C@@H](C)O)NC(=O)[C@@H]2CCCN2C(=O)CNC(=O)[C@H](CC(=O)O)NC(=O)[C@H](C)NC(=O)[C@@H](N)CSSC[C@@H](C(N)=O)NC(=O)[C@H](Cc2ccccc2)NC1=O [S-Abu] (HELM PEPTIDE1{C.A.D.G.P.T.L.R.E.W.I.[Abu].F.C.[am]}$PEPTIDE1,PEPTIDE1,1:R3-14:R3$$$V2.0; N-terminus and C-terminus assumed)	EC50 ([1]; Table 6, read-out: EC50 (nM) Cell Prolif.): < 500 nM
